Test system: AAV producer cell (HEK293)
Test: AAV titer by ddPCR, JQ1 treatment with and without wash out (FIG. 4)
Assay type: cell-based, human
Conditions: JQ1 4 μmol/L for 24 hours, medium exchanged to medium without JQ1 (with doxycycline 0.5 μg/mL), recovered after further 48 hours; versus 72 hours JQ1
Description: The HEK cell culture solution, which had been cultured for 72 hours after the gene introduction under the conditions of 37° C. and 8% CO2, was collected, and the cells were disrupted by freezing and thawing at −80° C. Then, the supernatant was collected by centrifugation at 13,800×g, 2 mmol/L (final concentration) MgCl2, and 25 U/mL Benzonase was added thereto, and a reaction was carried out at 37° C. for 2 hours to digest gDNA (genomic DNA) and residual plasmid. The sample after the reaction was incubated at 95° C. for 15 minutes, 70° C. for 3 minutes, 40° C. for 3 minutes, and 20° C. for 3 minutes in this order, to inactivate Benzonase, and the reactant was used as a ddPCR (Droplet Digital PCR) sample. […]. The sequences of the seq18, seq19, and seq20 are set forth in SEQ ID NOs: 18 to 20 in the sequence list.
In ddPCR, droplets were formed from the prepared solution using a droplet forming apparatus, and subsequently incubated at 95° C. for 10 minutes, 94° C. for 30 seconds, and 55° C. in this order for 40 cycles, and then incubated at 98° C. for 10 minutes. Measurement was performed using a droplet reader, and the AAV genomic titer (vg/mL) was calculated.
Furthermore, the produced AAV producer cell was seeded at 5×10^5 cells/mL and incubated for 6 hours, and then doxycycline (final concentration: 0.5 μg/mL) and JQ1 (final concentration: 4 μmol/L) were added. […]

## Cc1sc2c(c1C)C(c1ccc(Cl)cc1)=N[C@@H](CC(=O)OC(C)(C)C)c1nnc(C)n1-2 [(+)-JQ1, (S)-(+)-tert-butyl 2-(4-(4-chlorophenyl)-2,3,9-trimethyl-6H-thieno[3,2-f][1,2,4]triazolo[4,3-a][1,4]diazepin-6-yl)acetate]
  AAV titer per cell: further improved
